What follows are molecules tested against human ATX (Homo sapiens (Human), UniProt Q13822) (assay: Human ATX enzyme inhibition assay (fluorescence quenching, MR121 substrate)). Conditions: human His-tagged ATX 30 nM, MR121 substrate 1 μM, 30° C.
Format: biochemical
In short: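 Human His-tagged ATX (30 nM final) preincubated 15 min at 30 °C with serially diluted compounds in Tris buffer pH 8.0 with Ca2+, Mg2+ and 0.01% Triton X-100. MR121/tryptophan-labelled substrate analogue (1 μM final) then added for 15 min at 30 °C; cleavage read by fluorescence dequenching.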

Compound	IC50
Cc1cc(OCc2n[nH]c(=O)n2C)c(-c2cccc(C(=O)NCC(=O)O)c2)cc1Cl [Example B48]	192 nM
Cn1c(COc2ccc(-c3ncc[nH]3)cc2C(C)(C)C)n[nH]c1=O [Example A32, 3-[[2-tert-butyl-4-(1H-imidazol-2-yl)phenoxy]methyl]-4-methyl-1H-1,2,4-triazol-5-one]	3770 nM
COc1ncccc1-c1cc(C#N)c(Cl)cc1OCc1n[nH]c(=O)n1C [Example B54]	29 nM
Cc1cc(OCc2n[nH]c(=O)n2C)c(-c2cccc(Cl)c2)cc1Cl [Example B3]	1 nM
Cc1noc(-c2ccc(OCc3n[nH]c(=O)n3C)c(C(C)(C)C)c2)n1 [Example A4]	59 nM
Cc1cc(OCc2n[nH]c(=O)n2C)c(-c2cc(C(=O)N(C)CCO)ccc2F)cc1Cl [Example B64]	21 nM
Cc1cc(OCc2n[nH]c(=O)n2C)c(-c2ccno2)cc1Cl [Example B25]	20 nM
Cc1cc(OCc2n[nH]c(=O)n2C)c(-c2ccc(Cl)cc2)cc1Cl [Example B4]	6 nM

More lines, now with the values ahead:

IC50	Compound
21 nM	Cn1c(COc2cc(Cl)c(C#N)cc2-c2cccc(F)c2)n[nH]c1=O [Example B85]
18 nM	CC(C)(C)c1cc(Cl)c(F)cc1OCc1n[nH]c2cccnc12 [Example D25]
7 nM	Cc1cc(OCc2n[nH]c3nc(OCCO)ncc23)c(C(C)(C)C)cc1Cl [Example D31, 2-[[3-[(2-tert-Butyl-4-chloro-&-methylphenoxy)methyl]-1H-pyrazolo[3,4-d]pyrimidin-6-yl]oxy]ethanol]
9 nM	Cc1cc(OCc2n[nH]c3cnccc23)c(-c2cc(C(=O)N3CCN(C)C(=O)C3)ccc2F)cc1Cl [Example D44, 4-[3-[5-Chloro-4-methyl-2-(1H-pyrazolo[3,4-c]pyridin-3-ylmethoxy)phenyl]-4-fluorobenzoyl]-1-methylpiperazin-2-one]
9 nM	Cc1cc(OCc2n[nH]c3nc(NCCO)ncc23)c(C(C)(C)C)cc1C#N [Example D35]
23 nM	CC(C)(C)c1cc(S(C)(=O)=O)ccc1OCc1n[nH]c2ncccc12 [Example D45]
5 nM	N#Cc1cc(-c2cc(OC3CC3)ccc2F)c(OCc2ccc(=O)[nH]n2)cc1Cl [Example C14]
19 nM	Cn1c(COc2cc(Cl)c(C#N)cc2-c2ccccc2F)n[nH]c1=O [Example B84]
22 nM	Cc1cc(OCc2ccc(=O)[nH]n2)c(C2CC2)cc1Cl [Example C2, 3-[(4-Chloro-2-cyclopropyl-5-methylphenoxy)methyl]-1H-pyridazin-6-one]
6 nM	Cc1cc(OCc2n[nH]c3nc(OCC(O)CO)ccc23)c(C(C)(C)C)cc1Cl (stereo not drawn) [Example D15, 3-[[3-[(2-tert-Butyl-4-chloro-5-methylphenoxy)methyl]-1H-pyrazolo[3,4-b]pyridin-6-yl]oxy]propane-1,2-diol]

From patent US11352330B2, “Phenoxymethyl derivatives” (Hoffmann-La Roche Inc., priority 2015, dated 2022)
